According to PubChem BioAssay (NCI):
“And” between values parts separate entries of the source, which are not always exact repeats. Equal entries are not always repeated.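 Dose response: 5 concentrations. Exposure: 48 h. Format: 96-well plates. Endpoint: linear interpolation; highest concentration if not reached. At the GI50, growth is halved. The concentration for full growth arrest is given as TGI.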

How the values were obtained:
Test in all cases: DTP human tumour cell line panel, 48 h
[1] = test system: MDA-N
[2] = test system: OVCAR-8 ovarian
[3] = test system: A549 NSCLC
[4] = test system: NCI-H522 lung
[5] = test system: IGROV1 ovarian
[6] = test system: SK-MEL-5 melanoma
[7] = test system: SR leukemia
[8] = test system: SK-MEL-28 melanoma
[9] = test system: MALME-3M melanoma
[10] = test system: SNB-78 CNS

Q: Which TGI [1] does the source give for `Cn1nnnc1N/N=C/c1ccccc1` here?
A: > 10 µM

Q: And the TGI [2]?
A: > 10 µM

Q: What about the TGI [3] of the same compound?
A: > 10 µM

Q: What about the TGI [4] of the same compound?
A: > 10 µM

Q: What about the TGI [5] of the same compound?
A: > 10 µM

Q: And the TGI [6]?
A: > 10 µM

Q: And the TGI [7]?
A: > 10 µM

Q: What about the TGI [8] of the same compound?
A: > 10 µM

Q: Which TGI [1] does the source give for `CC(=O)c1c(C)n(C)c2c1nnc1ccccc12` here?
A: > 100 µM

Q: What about the TGI [2] of the same compound?
A: > 100 µM

Q: What about the TGI [9] of the same compound?
A: > 100 µM

Q: What about the TGI [3] of the same compound?
A: > 100 µM

Q: And the TGI [4]?
A: > 100 µM

Q: And the TGI [6]?
A: > 100 µM

Q: And the TGI [8]?
A: > 100 µM

Q: How did the TGI [1] turn out when `C=C(C)C1CC2(C)C(C)CC(OC(=O)/C(C)=C\C)CC2C(OC(=O)/C(C)=C\C)C1O` (stereo unspecified) was run?
A: > 100 µM

Q: What about the TGI [2] of the same compound?
A: > 100 µM

Q: And the TGI [9]?
A: > 100 µM

Q: And the TGI [3]?
A: > 100 µM

Q: And the TGI [4]?
A: > 100 µM

Q: What about the TGI [5] of the same compound?
A: > 100 µM

Q: What about the TGI [6] of the same compound?
A: 43.7 µM

Q: And the TGI [7]?
A: 45.1 µM

Q: What about the TGI [8] of the same compound?
A: > 100 µM

Q: With `COC1CCC(O)C(/C=C/[N+](=O)[O-])C1` (stereo unspecified) as the compound, how does the TGI [1] read?
A: 5.56 µM

Q: And the TGI [2]?
A: 4.69 µM

Q: And the TGI [3]?
A: 42.9 µM

Q: And the TGI [4]?
A: 23.2 µM

Q: What about the TGI [5] of the same compound?
A: 3.55 µM

Q: What about the TGI [6] of the same compound?
A: 14.9 µM

Q: What about the TGI [7] of the same compound?
A: 5.43 µM

Q: What about the TGI [8] of the same compound?
A: 54.9 µM

Q: `COc1ccc(C(=O)C(C(=O)C(=O)Nc2ccc(Cl)c(Cl)c2)c2ccc(OC)cc2)cc1` (stereo unspecified) was tested. Which TGI [2] did it give?
A: > 100 µM

Q: And the TGI [10]?
A: > 100 µM

Q: What about the TGI [9] of the same compound?
A: > 100 µM

Q: And the TGI [3]?
A: > 100 µM

Q: And the TGI [5]?
A: > 100 µM

Q: What about the TGI [6] of the same compound?
A: > 100 µM

Q: And the TGI [8]?
A: > 100 µM

Q: `O=S(=O)(O)c1ccc(-c2nnc(-c3ccccn3)nc2-c2ccc(S(=O)(=O)O)o2)o1` was tested. Which TGI [1] did it give?
A: > 100 µM

Q: What about the TGI [2] of the same compound?
A: > 100 µM

Q: What about the TGI [9] of the same compound?
A: > 100 µM

Q: What about the TGI [3] of the same compound?
A: > 100 µM

Q: What about the TGI [4] of the same compound?
A: > 100 µM

Q: And the TGI [5]?
A: > 100 µM

Q: What about the TGI [6] of the same compound?
A: > 100 µM

Q: What about the TGI [7] of the same compound?
A: > 100 µM

Q: And the TGI [8]?
A: > 100 µM

Q: `Cc1ccc(C)c(NC(=O)NCc2ccc(Cl)cc2)c1` was tested. Which TGI [1] did it give?
A: > 100 µM

Q: And the TGI [2]?
A: > 100 µM

Q: What about the TGI [9] of the same compound?
A: > 87.9 µM

Q: What about the TGI [3] of the same compound?
A: > 100 µM

Q: And the TGI [4]?
A: 97.3 µM

Q: What about the TGI [5] of the same compound?
A: > 100 µM

Q: And the TGI [6]?
A: > 100 µM

Q: And the TGI [7]?
A: 27.8 µM

Q: What about the TGI [8] of the same compound?
A: > 100 µM

Q: `Cc1cnc(/C=N\NC(N)=S)c2cccc(N)c12` was tested. Which TGI [1] did it give?
A: > 100 µM

Q: What about the GI50 [2] of the same compound?
A: 2.66 µM

Q: What about the TGI [2] of the same compound?
A: > 100 µM

Q: What about the GI50 [9] of the same compound?
A: 3.53 µM

Q: And the TGI [9]?
A: > 100 µM

Q: What about the GI50 [3] of the same compound?
A: 4.85 µM

Q: What about the TGI [3] of the same compound?
A: > 100 µM

Q: What about the GI50 [4] of the same compound?
A: 3.87 µM

Q: And the TGI [4]?
A: > 100 µM

Q: And the GI50 [5]?
A: 2.4 µM

Q: And the TGI [5]?
A: > 100 µM

Q: And the GI50 [6]?
A: 1.25 µM

Q: What about the GI50 [7] of the same compound?
A: 0.587 µM

Q: What about the TGI [8] of the same compound?
A: > 100 µM

Q: How did the TGI [1] turn out when `CN(C)CCNC(=O)Cn1cc([N+](=O)[O-])c(=O)c2ccccc21` was run?
A: > 100 µM

Q: What about the TGI [2] of the same compound?
A: > 100 µM

Q: And the TGI [9]?
A: > 100 µM

Q: What about the TGI [3] of the same compound?
A: > 100 µM

Q: What about the TGI [4] of the same compound?
A: > 100 µM

Q: And the TGI [5]?
A: > 100 µM

Q: And the TGI [6]?
A: > 100 µM

Q: And the TGI [7]?
A: > 100 µM

Q: And the TGI [8]?
A: > 100 µM

Q: Which GI50 [1] does the source give for `C/C(=N\N=C(\[Se])N1CCN(c2ccccn2)CC1)c1ccccn1` here?
A: 0.424 µM

Q: And the TGI [1]?
A: 21 µM

Q: What about the GI50 [2] of the same compound?
A: 0.000541 µM

Q: And the TGI [2]?
A: 20.6 µM

Q: What about the GI50 [9] of the same compound?
A: 0.159 µM

Q: And the TGI [9]?
A: 3.78 µM

Q: And the GI50 [3]?
A: 0.0476 µM

Q: And the TGI [3]?
A: 21.7 µM

Q: What about the GI50 [4] of the same compound?
A: 0.0429 µM

Q: What about the TGI [4] of the same compound?
A: 0.761 µM and 3.2 µM

Q: What about the GI50 [6] of the same compound?
A: 0.0401 µM

Q: What about the TGI [6] of the same compound?
A: 3.95 µM

Q: What about the GI50 [7] of the same compound?
A: 4.17 µM

Q: And the TGI [7]?
A: 54.4 µM

Q: What about the TGI [8] of the same compound?
A: 22.7 µM

Q: How did the GI50 [2] turn out when `Cc1cccc(C(=O)/C=C/SC(=NC#N)SCc2ccccc2)c1` was run?
A: 35.6 µM

Q: And the TGI [2]?
A: > 100 µM

Q: And the GI50 [9]?
A: 12.3 µM

Q: And the TGI [9]?
A: 32 µM

Q: And the GI50 [3]?
A: 23.7 µM

Q: What about the TGI [3] of the same compound?
A: 67.7 µM

Q: What about the GI50 [4] of the same compound?
A: 27.1 µM

Q: What about the TGI [4] of the same compound?
A: > 100 µM

Q: And the GI50 [5]?
A: 21.4 µM

Q: And the TGI [5]?
A: 61.5 µM

Q: And the GI50 [6]?
A: 14.7 µM

Q: What about the TGI [6] of the same compound?
A: 32.9 µM

Q: And the GI50 [7]?
A: 3.99 µM

Q: What about the TGI [7] of the same compound?
A: > 100 µM

Q: And the GI50 [8]?
A: 25.8 µM

Q: What about the TGI [8] of the same compound?
A: 67 µM
